Assay results as given in patent publication US6943148B1, “Methods for delivering therapeutics across blood-barrier and for altering receptor binding affinity” (Nobex Corporation, priority 1998, dated 2005).
Where a SMILES comes first, the peptide text is derived from it. Where no end group is shown, it is not given here. The star is where a group is joined. X1 = CCCCCCCCCCCCCCCCOCCOCCOC(=O)*

How the values were obtained:
μ-receptor = biological target: T1, μ-receptor (Rattus norvegicus, UniProt P33535); assay: % SPECIFIC BINDING; conditions: 0.1 µM
T1 construct: assessed for analgesic activity by rat paw-hot plate assay; from tissue; host or cells: whole living rat (in vivo)
T1 sequence (P33535 whole entry, looked up): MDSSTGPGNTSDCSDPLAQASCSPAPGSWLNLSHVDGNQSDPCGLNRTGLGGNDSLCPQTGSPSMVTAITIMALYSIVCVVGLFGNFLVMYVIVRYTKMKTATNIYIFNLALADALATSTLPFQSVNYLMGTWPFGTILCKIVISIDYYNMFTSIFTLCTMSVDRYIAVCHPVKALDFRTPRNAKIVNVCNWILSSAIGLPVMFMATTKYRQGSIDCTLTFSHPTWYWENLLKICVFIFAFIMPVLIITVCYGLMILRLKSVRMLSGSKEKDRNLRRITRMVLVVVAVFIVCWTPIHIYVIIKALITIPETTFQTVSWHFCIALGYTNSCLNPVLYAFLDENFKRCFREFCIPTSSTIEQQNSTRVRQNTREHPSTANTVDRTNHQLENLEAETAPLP
From the text: Table printed on a drawing sheet, FIG.8
Head of the field: % […] BINDING
First copying reader's note: The title is printed as the top row inside the table frame and is given as the title, not as a grid row.

Sprague-Dawley rats = assay: Rat paw-hot plate test; type: in vivo; conditions: for Mean Analgesia as Compared with Morphine at 3 mg/Kg @ 5 min / Mean Analgesia as Compared with Morphine at 3 mg/Kg @ 30 min: hot plate 52° C., dose (mg/kg): Morphine 3, Enkephalin 20, Cetyl 5, DHA 20, Cholesterol 5, Linolenic 10; for analgesic effect as compared to morphine as a baseline: hot plate, time not stated, enkephalin 20 mg/kg
Method: Adult, male Sprague-Dawley rats weighing 150-175 g were obtained from Charles River Breeding Laboratories (Raleigh, NC) and used for all animal studies. Rats were housed in hanging wire-bottomed cages in a vivarium equipped with a 12:12 light:dark cycle and humidity was maintained between 45-65% with a room temperature of […]. Rats were provided Purina Rodent Chow and tap water ad libitum.
Met-enkephalin-lys SEQ ID NO: 49 and met-enkephalin-lys SEQ ID NO: 1 derivatives were assessed for analgesic activity by rat paw-hot plate assay. Rats were given an injection of naloxone at 0.5 mg/kg (s.c.) then administered a single administration of cetyl-enkephalin SEQ ID NO: 1 by the tail vein 10 minutes later at a dose of 5.0 mg/kg.
In a separate study, rats were administered cetyl-enkephalin SEQ ID NO: 1 (5.0 mg/kg, i.v.) or clonidine (0.125 mg/kg, i.v.).
The latency to rat paw withdrawal from the hot plate was measured by a Hot Plate Analgesia Meter (Harvard Apparatus Ltd., Kent, England). The temperature of the hot plate was set and calibrated at 52° C. and rats were removed from the heat stimulus by 36 seconds after placement. Latency trials were terminated when the animal was either licking a hind paw or initiating a jump from the plate. Baseline measurements were collected 1 hour prior to drug administration and at various times post-injection, dependent upon the study conducted. All hot plate testing was terminated by 1 hour after drug dosing.

[1] = Extraction and detection of enkephalin conjugates from the brain of dosed rats (HPLC); type: in vivo; conditions: rat brain removed 10 minutes after dosing; 5 mg/kg cetyl-PEG2-enkephalin; compared with standard peak
Method: The following procedure was used to identify the presence of conjugate from the brain specimen of animals dosed with 5 mg/kg cetyl-PEG2-enkephalin SEQ ID NO: 1.
After 10 minutes of dosing, the brain of the animal was perfused with 1.5% triflouroacetic acid in PBS solution, and the brain was removed and frosen at −70° C. The brain was homogenized with 1 mL of 1.5% triflouroacetic acid in PBS solution and the homogenate was extracted with acetonitrile/isopropanol solution. The extract was treated with saturated sodium chloride solution and frozen at −20° C. for 2 hours. The organic layer was isolated and centrifuged at 4000 RPM. The supernatant was evaporated and the resulting residue was reconstituted in acetonitrile/isopropanol/water mixture. The reconstituted solution was analyzed by HPLC using a gradient of 10 to 100% isopropanol/water (0.1% trifloiroacetic acid) on a C-18 column. The presence and the concentration of cetyl-PEG2-enkephalin SEQ ID NO: 1 conjugate in the extract were measured by comparing the retention time and the peak area of standard solution under the same analytical condition.

Molecule | % SPECIFIC BINDING (μ-receptor) [%] | Mean Analgesia as Compared with Morphine at 3 mg/Kg @ 5 min (Sprague-Dawley rats) [%] | Mean Analgesia as Compared with Morphine at 3 mg/Kg @ 30 min (Sprague-Dawley rats) [%] | further results
CHOLESTEROL-PEG3-ENK (SEQ ID NO: 1) (YGGFMK; also: cholesterol-PEG3 conjugate, site not given here) [CHOL-ENK] | 95 |  |  | 
DHA MET-ENKEPHALIN-LYS [DHA-PEG-ENK] |  | 130 | 67 | analgesic effect as compared to morphine as a baseline (Sprague-Dawley rats): 130%
Met enkephalin-lys (YGGFMK) [reference compound] |  | 0 | 0 | analgesic effect as compared to morphine as a baseline (Sprague-Dawley rats): 0%; Presence of conjugate peak in brain extract (HPLC) [1]: neither the vehicle (FIG. 5C) nor the unconjugated enkephalin SEQ ID NO: 49 (FIG. 5D) showed a corresponding peak
CCCCCCCCCCCCCCCCOCCOCCOC(=O)NCCCC[C@H](NC(=O)[C@H](CCSC)NC(=O)[C@H](Cc1ccccc1)NC(=O)CNC(=O)CNC(=O)[C@@H](N)Cc1ccc(O)cc1)C(=O)O [Cetyl-PEG-ENK, CETYL MET-ENKEPHALIN-LYS] (H-YGGFMK(X1)-OH) |  |  |  | Presence of conjugate peak in brain extract (HPLC) [1]: actually present in the brain exact
PALMITATE-PEG3-ENK (SEQ ID NO: 1) [PALM-ENK] | 76 |  |  | 
LINOLEIC MET-ENKEPHALIN-LYS [Linolenic-PEG-ENK] |  | 77 | 73 | 
DHA-PEG2-ENK (SEQ ID NO: 1) (YGGFMK; also: DHA-PEG2 conjugate, site not given here) [DHA-ENK] | 63 |  |  | 
CN1CC[C@]23c4c5ccc(O)c4O[C@H]2[C@@H](O)C=C[C@H]3[C@H]1C5 [Morphine, reference compound] |  | 100 | 100 | 
CETYL-PEG3-ENK (SEQ ID NO: 1) (YGGFMK; also: cetyl-PEG3 conjugate, site not given here) [CETYL-TEG-ENK] | 100 |  |  | 
CETYL-PEG2-ENK (SEQ ID NO: 1) (YGGFMK; also: cetyl-PEG2 conjugate, site not given here) [CETYL-ENK] | 100 |  |  | 
